Legend:
tyrosine kinase of MCF7 = conditions: US 2011027809; cited from earlier work
[1] = system: tyrosine kinase in measurement samples of lapatinib-sensitive cell line group; test: Tyrosine kinase activity inhibition, group comparison (FIG. 3); format: biochemical
Protocol: (§1) After shaking the measuring plate at 37° C. and 400 rpm for 60 minutes, the solution was removed from the measuring plate, and the wells were washed with 300 μl of TBS-T three times. 100 μl of Starting Block T20 (TBS) (#37543: Pierce) as a blocking solution was added to the wells, followed by blocking at 37° C. and 400 rpm for 10 minutes. The blocking solution was removed from the measuring plate. 100 μl of a solution prepared by diluting HRP-labeled anti-phosphorylated tyrosine antibody (#sc-508 HRP: Santa Cruz) with Starting Block T20 (TBS) at a ratio of 1:1000 was added to the wells, followed by shaking at 37° C. and 400 rpm for 90 minutes. Then, the wells were washed with 300 μl of TBS-T five times. […] Thereafter, the emission from the wells was measured by a GENios microplate reader (manufactured by Tecan Trading AG). The inhibitory capacity of the kinase inhibitors in the measurement sample was evaluated by an inhibition rate (value of “100−{(measurement value of activity in the presence of inhibitors)/(measurement value of activity in the absence of inhibitors)}×100”) calculated base on a ratio of the measurement value of tyrosine kinase activity in the presence of the inhibitors and the measurement value of the control (in the absence of the inhibitors). […]

[2] = system: tyrosine kinase in measurement samples of lapatinib-insensitive cell line group; test: as above; format: biochemical
Protocol: as §1

[3] = system: tyrosine kinase of MDA-MB231; conditions: US 2011027809; cited from earlier work
[4] = system: tyrosine kinase of BT-474; conditions: US 2011027809; cited from earlier work

COc1cc2ncnc(Nc3ccc(Oc4ccccc4)cc3)c2cc1OC [Inhibitor 10, 4-(4′-phenoxyanilino)-6,7-dimethoxyquinazoline]
tyrosine kinase activity inhibitory effects caused by the Src inhibitor (tyrosine kinase of MCF7): low | inhibitory effect of the Src inhibitor on the kinase activity [1]: low | inhibitory effect of the Src inhibitor on the kinase activity [2]: high | tyrosine kinase activity inhibitory effects caused by the Src inhibitor [3]: low | tyrosine kinase activity inhibitory effects caused by the Src inhibitor [4]: high
